IC50 data for 26 compounds are collected here from patent US8273890B2 (4SC AG, priority 2007, dated 2012).

Molecules are shown by their SMILES.

For the assay, the target named is T1, recombinant Plk1 protein (Homo sapiens, UniProt P53350).
T1 construct: histidine tag (N); made in house; host or cells: SF9 insect cells
T1 sequence (P53350 whole entry): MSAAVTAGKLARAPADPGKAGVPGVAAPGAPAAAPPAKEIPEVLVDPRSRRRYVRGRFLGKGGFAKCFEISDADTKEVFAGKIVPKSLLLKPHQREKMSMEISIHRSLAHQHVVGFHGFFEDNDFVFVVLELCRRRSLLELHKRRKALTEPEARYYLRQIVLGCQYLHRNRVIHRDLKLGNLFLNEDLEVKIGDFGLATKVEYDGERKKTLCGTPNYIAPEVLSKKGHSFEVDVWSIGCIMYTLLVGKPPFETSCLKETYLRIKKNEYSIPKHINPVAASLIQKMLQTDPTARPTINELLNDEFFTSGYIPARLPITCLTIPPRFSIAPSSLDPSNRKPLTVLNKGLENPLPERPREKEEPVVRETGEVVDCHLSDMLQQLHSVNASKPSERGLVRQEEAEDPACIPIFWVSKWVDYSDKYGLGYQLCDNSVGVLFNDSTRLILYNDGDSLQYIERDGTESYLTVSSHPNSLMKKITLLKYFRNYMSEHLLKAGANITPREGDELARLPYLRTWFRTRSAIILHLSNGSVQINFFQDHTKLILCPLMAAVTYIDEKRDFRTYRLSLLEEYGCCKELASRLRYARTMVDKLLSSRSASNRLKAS
In words: Plk1 kinase activity inhibition assay (33P-ATP, alpha casein substrate, flash plates). The assay is classed as biochemical. Conditions: enzymatic assay, 100 nM Li-ATP, 80 minutes at 30° C. On the procedure:
The inhibition of Plk1 kinase activity can be measured using recombinant Plk1 protein expressed as an N-terminally histidine-tagged protein in SF9 insect cells and alpha casein as substrate. The Plk1 assay is run in 96 well plates by incubating 50 to 100 ng per well recombinant Plk1, 500 ng per well alpha casein (Sigma, # C-6780) as substrate, 10 μl of compound of invention (test compounds were dissolved as 20 mM solutions in dimethylsulfoxide (DMSO) and subsequently diluted), and 100 nM Li-ATP (including ^33P-ATP) in 100 μl of reaction buffer ([…] HEPES, pH 7.5; 3 mM MgCl2; 3 mM MnCl2; 3 μM Na-Orthovanadat; 1 mM DTT; 1 μg/ml PEG 8000) for 80 minutes at 30° C. The reactions are terminated by adding 100 μl stopping buffer (2% H3PO4 for 5 minutes) and are washed 3 times with washing solution (0.9% NaCl). Determining ^33P incorporated into the protein substrate alpha casein, the detection is based on the adhesion of the phosphorylated protein to the surface of scintillator-coated flash plates (Perkin Elmer, USA; #SMP-200). Phosphorylation of alpha casein is measured by counting the radioactivity bound to the plate for 60 sec. using a plate reader (Perkin Elmer, USA; Wallac Microbeta). By this method, the IC50 value of the Plk1 inhibition is determined as described above.
The IC50 is the concentration that gives 50% inhibition. As to `CN1CCN(Cc2cc3ncn(-c4cc(OCc5ccccc5C(F)(F)F)c(C(N)=O)s4)c3cn2)CC1` [Example 37, 5-{6-[(4-methylpiperazin-1-yl)methyl]-3H-imidazo[4,5-c]pyridin-3-yl}-3-{[2-(trifluoromethyl)benzyl]oxy}thiophene-2-carboxamide], the half-maximal inhibitory concentration (IC50) was in the range of 1000 to 10000 nM. Then `CC(Oc1cc(-n2cnc3cnc(CO)cc32)sc1C(N)=O)c1ccc(C#N)cc1Cl` (centres unmarked) [Example 123, 3-[1-(2-chloro-4-cyanophenyl)ethoxy]-5-[6-(hydroxymethyl)-1H-imidazo[4,5-c]pyridin-1-yl]thiophene-2-carboxamide], with less than 10 nM; and `CC(Oc1cc(-n2cnc3cc(CNC4CCC4)ncc32)sc1C(N)=O)c1ccccc1C(F)(F)F` (centres unmarked) [Example 111, 5-{6-[(cyclobutylamino)methyl]-3H-imidazo[4,5-c]pyridin-3-yl}-3-{-1-[2-(trifluoromethyl)phenyl]ethoxy}thiophene-2-carboxamide], with 100 to 1000 nM; and `CCN(CC)Cc1cc2c(cn1)ncn2-c1cc(OCc2ccccc2C(F)(F)F)c(C(N)=O)s1` [Example 6, 5-{6-[(Diethylamino)methyl]-1H-imidazo[4,5-c]pyridin-1-yl}-3-{[2-(trifluoromethyl)benzyl]oxy}thiophene-2-carboxamide], with 100 to 1000 nM. The same measure for `CC(Oc1cc(-n2cnc3cnc(CN4CCN(C)CC4)cc32)sc1C(N)=O)c1ccccc1OC(F)F` (centres unmarked) [Example 99, 3-{1-[2-(difluoromethoxy)phenyl]ethoxy}-5-{6-[(4-methylpiperazin-1-yl)methyl]-1H-imidazo[4,5-c]pyridin-1-yl}thiophene-2-carboxamide]: less than 10 nM; for `CCN1CCN(Cc2cc3c(cn2)ncn3-c2cc(O[C@H](C)c3ccccc3C(F)(F)F)c(C(N)=O)s2)CC1` [Example 107, 5-{6-[(4-ethylpiperazin-1-yl)methyl]-1H-imidazo[4,5-c]pyridin-1-yl}-3-{(1R)-1-[2-(trifluoromethyl)phenyl]ethoxy}thiophene-2-carboxamide]: less than 10 nM; for `COCCN1CCN(Cc2cc3ncn(-c4cc(OC(C)c5ccccc5F)c(C(N)=O)s4)c3cn2)CC1` (centres unmarked) [Example 157, 3-[-1-(2-fluorophenyl)ethoxy]-5-(6-{[4-(2-methoxyethyl)piperazin-1-yl]methyl}-3H-imidazo[4,5-c]pyridin-3-yl)thiophene-2-carboxamide]: 100 to 1000 nM. Then `C[C@H](Oc1cc(-n2cnc3cnc(CO)cc32)sc1C(N)=O)c1ccccc1C(F)(F)F` [Example 46, 5-[6-(hydroxymethyl)-1H-imidazo[4,5-c]pyridin-1-yl]-3-{(1S)-1-[2-(trifluoromethyl)phenyl]ethoxy}thiophene-2-carboxamide], with 100 to 1000 nM; and `NC(=O)c1sc(-n2cnc3cnccc32)cc1OCc1cccc(C(F)(F)F)c1` [Example 35, 5-(1H-imidazo[4,5-c]pyridin-1-yl)-3-{[3-(trifluoromethyl)benzyl]oxy}thiophene-2-carboxamide], with 10 to 100 nM. `COc1cc2ncn(-c3cc(OCc4ccccc4C(F)(F)F)c(C(N)=O)s3)c2cn1` [Example 17, 5-(6-Methoxy-3H-imidazo[4,5-c]pyridin-3-yl)-3-{[2-(trifluoromethyl)benzyl]oxy}thiophene-2-carboxamide]: the half-maximal inhibitory concentration (IC50) lay within 10 to 100 nM. Take `C[C@@H](Oc1cc(-n2cnc3cnc(CN4CCN(c5ccccc5)CC4)cc32)sc1C(N)=O)c1ccccc1C(F)(F)F` [Example 59, 5-{6-[(4-phenylpiperazin-1-yl)methyl]-1H-imidazo[4,5-c]pyridin-1-yl}-3-{(1R)-1-[2-(trifluoromethyl)phenyl]ethoxy}thiophene-2-carboxamide]: the IC50 is 10 to 100 nM. For the compound `C[C@@H](Oc1cc(-n2cnc3cnc(CN4CCN(CC(=O)N5CCCC5)CC4)cc32)sc1C(N)=O)c1ccccc1C(F)(F)F` [Example 145, 5-(6-{[4-(2-oxo-2-pyrrolidin-1-ylethyl)piperazin-1-yl]methyl}-1H-imidazo[4,5-c]pyridin-1-yl)-3-{(1R)-1-[2-(trifluoromethyl)phenyl]ethoxy}thiophene-2-carboxamide], the IC50 fell in the range of 10 to 100 nM. Consider `C[C@@H](Oc1cc(-n2cnc3cnc(CN4CCN(CC(=O)N(C)c5ccccc5)CC4)cc32)sc1C(N)=O)c1ccccc1C(F)(F)F` [Example 86, 5-{6-[(4-{2-[methyl(phenyl)amino]-2-oxoethyl}piperazin-1-yl)methyl]-1H-imidazo[4,5-c]pyridin-1-yl}-3-{(1R)-1-[2-(trifluoromethyl)phenyl]ethoxy}thiophene-2-carboxamide], for which the half-inhibitory concentration (IC50) was in the range of 10 to 100 nM. Then `C[C@@H](Oc1cc(-n2cnc3cnc(CN4CCN(C(=O)N(C)C)CC4)cc32)sc1C(N)=O)c1ccccc1C(F)(F)F` [Example 68, 4-{[1-(5-carbamoyl-4-{(1R)-1-[2-(trifluoromethyl)phenyl]ethoxy}-2-thienyl)-1H-imidazo[4,5-c]pyridin-6-yl]methyl}-N,N-dimethylpiperazine-1-carboxamide], with less than 10 nM. Then `NC(=O)c1sc(-n2cnc3cnc(CO)cc32)cc1O[C@@H](CO)c1ccccc1Cl` [Example 146, 3-[(1R)-1-(2-chlorophenyl)-2-hydroxyethoxy]-5-[6-(hydroxymethyl)-1H-imidazo[4,5-c]pyridin-1-yl]thiophene-2-carboxamide], with less than 10 nM; and `C[C@@H](Oc1cc(-n2cnc3cnc(CNC(C)(C)C)cc32)sc1C(N)=O)c1ccccc1C(F)(F)F` [Example 114, 5-{6-[(tert-butylamino)methyl]-1H-imidazo[4,5-c]pyridin-1-yl}-3-{(1R)-1-[2-(trifluoromethyl)phenyl]ethoxy}thiophene-2-carboxamide], with 10 to 100 nM; and `NC(=O)c1sc(-n2cnc3cnc(CNC4CC4)cc32)cc1OCc1ccccc1C(F)(F)F` [Example 7, 5-{6-[(Cyclopropylamino)methyl]-1H-imidazo[4,5-c]pyridin-1-yl}-3-{[2-(trifluoromethyl)benzyl]oxy}thiophene-2-carboxamide], with 10 to 100 nM. Take `C[C@@H](Oc1cc(-n2cnc3cc(CNS(C)(=O)=O)ncc32)sc1C(N)=O)c1ccccc1C(F)(F)F` [Example 90, 5-(6-{[(methylsulfonyl)amino]methyl}-3H-imidazo[4,5-c]pyridin-3-yl)-3-{(1R)-1-[2-(trifluoromethyl)phenyl]ethoxy}thiophene-2-carboxamide]: the IC50 is 10 to 100 nM. Then `NC(=O)c1sc(-n2cnc3cnccc32)cc1OCc1ccccc1OC(F)(F)F` [Example 33, 5-(1H-imidazo[4,5-c]pyridin-1-yl)-3-{[2-(trifluoromethoxy)benzyl]oxy}thiophene-2-carboxamide], with 10 to 100 nM; and `C=CCN1CCN(Cc2cc3c(cn2)ncn3-c2cc(O[C@H](C)c3ccccc3C(F)(F)F)c(C(N)=O)s2)CC1` [Example 122, 5-{6-[(4-allylpiperazin-1-yl)methyl]-1H-imidazo[4,5-c]pyridin-1-yl}-3-{(1R)-1-[2-(trifluoromethyl)phenyl]ethoxy}thiophene-2-carboxamide], with less than 10 nM. The same measure for `C[C@@H](Oc1cc(-n2cnc3cc(CO)ncc32)sc1C(N)=O)c1ccccc1C(F)(F)F` [Example 47, 5-[6-(hydroxymethyl)-3H-imidazo[4,5-c]pyridin-3-yl]-3-{(1R)-1-[2-(trifluoromethyl)phenyl]ethoxy}thiophene-2-carboxamide]: 10 to 100 nM; for `C[C@@H](Oc1cc(-n2cnc3cnc(CN4CCCN(C)CC4)cc32)sc1C(N)=O)c1ccccc1C(F)(F)F` [Example 164, 5-{6-[(4-methyl-1,4-diazepan-1-yl)methyl]-1H-imidazo[4,5-c]pyridin-1-yl}-3-{(1R)-1-[2-(trifluoromethyl)phenyl]ethoxy}thiophene-2-carboxamide]: less than 10 nM; for `C[C@@H](Oc1cc(-n2cnc3cnc(CN4CCC(N5CCN(C)CC5)CC4)cc32)sc1C(N)=O)c1ccccc1C(F)(F)F` [Example 89, 5-(6-{[4-(4-methylpiperazin-1-yl)piperidin-1-yl]methyl}-1H-imidazo[4,5-c]pyridin-1-yl)-3-{(1R)-1-[2-(trifluoromethyl)phenyl]ethoxy}thiophene-2-carboxamide]: 10 to 100 nM. `CCC(Oc1cc(-n2cnc3cnc(CN4CCN(C(=O)N(C)C)CC4)cc32)sc1C(N)=O)c1ccccc1Cl` (centres unmarked) [Example 137, 4-{[1-(5-carbamoyl-4-{[1-(2-chlorophenyl)propyl]oxy}-2-thienyl)-1H-imidazo[4,5-c]pyridin-6-yl]methyl}-N,N-dimethylpiperazine-1-carboxamide]: the IC50 was 10 to 100 nM. Regarding `COc1cc2c(ncn2-c2cc(OCc3ccccc3C(F)(F)F)c(C(N)=O)s2)nc1OC` [Example 21A, 5-(5,6-Dimethoxy-1H-imidazo[4,5-b]pyridin-1-yl)-3-{[2-(trifluoromethyl)benzyl]oxy}thiophene-2-carboxamide], the IC50 was 100 to 1000 nM.

For `C[C@@H](Oc1cc(-n2cnc3cnc(CN4CCN(CCO)CC4)cc32)sc1C(N)=O)c1ccccc1Cl` [Example 127, 3-[(1R)-1-(2-chlorophenyl)ethoxy]-5-(6-{[4-(2-hydroxyethyl)piperazin-1-yl]methyl}-1H-imidazo[4,5-c]pyridin-1-yl)thiophene-2-carboxamide], the IC50 is less than 10 nM.
